In patent publication US20020169111A1, “Reversal of multidrug resistance in human colon carcinoma cells” (American Cyanamid Comany, priority 1998, published 2002):
Several values for one entry are separate records, joined by “and”; a condition that tells them apart may be missing. Equal entries are not always repeated. Where two headings read alike, the source gives them in different places.

Legend:
S1 cells [1] = test: Drug accumulation analysis with [14C] drug; assay type: cell-based, human; details: 90 minutes
Description: To determine the mechanism of resistance, drug resistant and sensitive cells were incubated with radioactive analogues of antitumor agents and cell-associated radioactivity was measured by scintillation counting. Alternatively, surrogates of chemotherapeutic drugs may be used. The surrogate has no antitumor activity itself but interacts with the cancer cell proteins such as P-gp or MRP in a similar manner as an anticancer drug. The surrogate chemotherapeutic drug would have a property such as fluorescence which is useful for determining the drug resistance mechanisms such as efflux.
Cells were plated in 60 mm dishes (1×10^6 cells per dish) or in 24 well clusters (2 ×10^5 cells per well) and allowed to grow for 1-2 days. […] Drugs used were [^14C]-mitoxantrone (Amersham, 1 or 5 μM; specific activity 66 mCi/mmol) or [^14C]-doxorubicin (Amersham, 0.5 or 3 μM; specific activity 50-62 mCi/mmol ). […] Unbound drug was removed by washing twice in ice-cold phosphate buffered saline (PBS), cells were solubilized in 2 N NaOH at 37° C. for 1-2 hours, and analyzed by scintillation counting. Results were normalized to cell protein content measured by a Lowry assay.
The cells were then washed, solubilized, and counted in a scintillation counter. Values are mean disintegration per minute per μg protein of triplicate determinations ± standard deviation.

S1-M1-3.2 cells [2] = details: for Per Cent Survival Alone: 3 days; for Difference Score: survival alone minus survival with 3.2 μM mitoxantrone
Method in brief: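 Cells grown in medium with 5% FBS received reversal agents at 0.1-80 μM (triplicate per dose), with or without the antitumor agent, plus reversal agent-only wells; survival by SRB assay. Difference Score = % survival with drug alone minus % survival with drug plus antitumor agent.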

S1 cells [3] = test: Dose modifying factor of FTC (SRB, EC50 ratio); assay type: cell-based, human
Description: (§1) Cell survival was estimated after 3 days using the SRB assay. Cell survival was determined by the SRB assay and EC50 values were determined from toxicity curves. The dose modifying factor (DMF) is the ratio of EC50 values obtained in the absence and presence of reversal agent. Maximum DMF values (shown in parentheses) is the ratio of EC50 values of resistant and sensitive cells in the absence of the reversal agent. This value is obtained when resistance is reversed completely, and is the equivalent of the relative resistance.

S1-M1-3.2 cells [4] = test: Dose modifying factor of FTC (SRB, EC50 ratio); assay type: cell-based, human; details: S1-M1 cells
Description: as §1

MCF-7 cells [5] = test: Dose modifying factor of FTC (SRB, EC50 ratio); assay type: cell-based, human; details: for Dose modifying factor (5 μM FTC): MCF-7 (untransfected, Table 11)
Description: as §1
(§2) In order to determine the utility of FTC as a reversal agent in other multidrug resistant cell lines, FTC was tested in two breast cancer cell lines which show a multidrug resistant phenotype with no overexpression of P-gp or MRP.
Cell survival was estimated after 3 days using the SRB assay, and EC50 values were determined from cytotoxicity curves.

MCF 7/AdVp cells = assay type: cell-based, human; details: MCF 7/AdVp; 5 μM FTC with Paclitaxel
Description: as §1, §2

HL-60 cells = test: Dose modifying factor of FTC (SRB, EC50 ratio); assay type: cell-based; details: for Dose modifying factor: HL-60
Description: as §1

HL-60/AR cells = assay type: cell-based; details: for Dose modifying factor: HL-60/AR
Description: as §1

MCF-7 cells [6] = assay type: cell-based, human; details: 1 hour retention phase
Description: (§3) All incubations were carried out in the absence or presence of FTC (1 or 5 μM).

MCF-7/BCRP cells = assay type: cell-based, human; details: MCF-7/BCRP
Description: as §3

8226/MR4 cells = test: Reversal of mitoxantrone resistance in myeloid cells; assay type: cell-based, human; details: selected for resistance to mitoxantrone
H460 = test: Sensitization of unselected cells to mitoxantrone; assay type: cell-based; details: H460 non small cell lung carcinoma, not selected
A549 = test: Sensitization of unselected cells to mitoxantrone; assay type: cell-based; details: A549 non small cell lung carcinoma, not selected
[7] = 1 μM [14C]-doxorubicin, 1 hour retention phase
[8] = 1 μM daunorubicin, 1 hour retention phase

SMILES: COc1ccc2c3c([nH]c2c1)[C@H](C=C(C)C)N1C(=O)[C@@H]2CCCN2C(=O)[C@@H]1C3 [Fumitremorgin C]
- Doxorubicin Drug Accumulation with 1 μM FTC (S1 cells [1]; [14C] doxorubicin): 111 ± 15 DPM/μg protein
- Mitoxantrone Drug Accumulation with 1 μM FTC (S1 cells [1]; [14C] mitoxantrone): 2246 ± 233 DPM/μg protein
- concentration giving 40% cell death (compound alone) (S1-M1-3.2 cells [2]; S1-M1-3.2 cells): greater than 80 μM
- toxicity alone (in words) (S1-M1-3.2 cells [2]; S1-M1-3.2 cells, dose range tested 0.1-80 μM): No toxicity
- Per Cent Survival with 3.2 μM mitoxantrone (S1-M1-3.2 cells [2]; S1-M1-3.2 cells, drug 0.1 μM): 95 ± 4 Per Cent
- Per Cent Survival Alone (S1-M1-3.2 cells [2]; S1-M1-3.2 cells, drug 0.1 μM alone): 105 ± 4 Per Cent
- Difference Score (S1-M1-3.2 cells [2]; S1-M1-3.2 cells, drug 0.1 μM): 10
- Per Cent Survival with 3.2 μM mitoxantrone (S1-M1-3.2 cells [2]; S1-M1-3.2 cells, drug 0.5 μM): 39 ± 10 Per Cent
- Per Cent Survival Alone (S1-M1-3.2 cells [2]; S1-M1-3.2 cells, drug 0.5 μM alone): 105 ± 2 Per Cent
- Difference Score (S1-M1-3.2 cells [2]; S1-M1-3.2 cells, drug 0.5 μM): 66
- Per Cent Survival with 3.2 μM mitoxantrone (S1-M1-3.2 cells [2]; S1-M1-3.2 cells, drug 1 μM): 30 ± 1 Per Cent
- Per Cent Survival Alone (S1-M1-3.2 cells [2]; S1-M1-3.2 cells, drug 1 μM alone): 103 ± 1 Per Cent
- Difference Score (S1-M1-3.2 cells [2]; S1-M1-3.2 cells, drug 1 μM): 73
- Per Cent Survival with 3.2 μM mitoxantrone (S1-M1-3.2 cells [2]; S1-M1-3.2 cells, drug 5 μM): 24 ± 4 Per Cent
- Per Cent Survival Alone (S1-M1-3.2 cells [2]; S1-M1-3.2 cells, drug 5 μM alone): 99 ± 5 Per Cent
- Difference Score (S1-M1-3.2 cells [2]; S1-M1-3.2 cells, drug 5 μM): 75
- Per Cent Survival with 3.2 μM mitoxantrone (S1-M1-3.2 cells [2]; S1-M1-3.2 cells, drug 10 μM): 22 ± 6 Per Cent
- Per Cent Survival Alone (S1-M1-3.2 cells [2]; S1-M1-3.2 cells, drug 10 μM alone): 99 ± 1 Per Cent
- Difference Score (S1-M1-3.2 cells [2]; S1-M1-3.2 cells, drug 10 μM): 77
- Per Cent Survival with 3.2 μM mitoxantrone (S1-M1-3.2 cells [2]; S1-M1-3.2 cells, drug 20 μM): 17 ± 10 Per Cent
- Per Cent Survival Alone (S1-M1-3.2 cells [2]; S1-M1-3.2 cells, drug 20 μM alone): 104 ± 4 Per Cent
- Difference Score (S1-M1-3.2 cells [2]; S1-M1-3.2 cells, drug 20 μM): 87
- Per Cent Survival with 3.2 μM mitoxantrone (S1-M1-3.2 cells [2]; S1-M1-3.2 cells, drug 40 μM): 14 ± 11 Per Cent
- Per Cent Survival Alone (S1-M1-3.2 cells [2]; S1-M1-3.2 cells, drug 40 μM alone): 108 ± 5 Per Cent
- Difference Score (S1-M1-3.2 cells [2]; S1-M1-3.2 cells, drug 40 μM): 94
- Per Cent Survival with 3.2 μM mitoxantrone (S1-M1-3.2 cells [2]; S1-M1-3.2 cells, drug 80 μM): 13 ± 11 Per Cent
- Per Cent Survival Alone (S1-M1-3.2 cells [2]; S1-M1-3.2 cells, drug 80 μM alone): 94 ± 4 Per Cent
- Difference Score (S1-M1-3.2 cells [2]; S1-M1-3.2 cells, drug 80 μM): 81
- Toxicity (>20%) (S1-M1-3.2 cells [2]; compound alone, concentration that causes greater than 20% cell death of S1-M1-3.2 cells): >80.0 µM
- Toxicity (>20%) (μM) (S1-M1-3.2 cells [2]; compound alone, concentration that causes greater than 20% cell death of S1-M1-3.2 cells, listed as FTC): greater than 80.0 μM
- IC50 (S1-M1-3.2 cells [2]; read-out: IC50 (μM), resensitizing S1-M1-3.2 cells to mitoxantrone, with 3.2 μM mitoxantrone, 50% cancer cell death, listed as FTC): 0.35 µM and 0.3 µM
- Dose modifying factor (S1 cells [3]; 5 μM FTC with Doxorubicin): 1
- Dose modifying factor (S1 cells [3]; 5 μM FTC with Mitoxantrone): 1
- Dose modifying factor (S1 cells [3]; 5 μM FTC with Paclitaxel): 1.4
- Dose modifying factor (S1 cells [3]; 5 μM FTC with Topotecan): 0.9
- Dose modifying factor (S1-M1-3.2 cells [4]; 5 μM FTC with Doxorubicin, listed as FTC): 26 and 25.9
- Dose modifying factor (S1-M1-3.2 cells [4]; 5 μM FTC with Mitoxantrone): 93
- Dose modifying factor (S1-M1-3.2 cells [4]; 5 μM FTC with Paclitaxel): 1.1
- Dose modifying factor (S1-M1-3.2 cells [4]; 5 μM FTC with Topotecan): 24
- Dose modifying factor (MCF-7 cells [5]; MCF 7 (row above MCF 7/AdVp), 5 μM FTC with Doxorubicin): 2.0
- Dose modifying factor (MCF-7 cells [5]; MCF 7 (row above MCF 7/AdVp), 5 μM FTC with Mitoxantrone): 7.5
- Dose modifying factor (MCF-7 cells [5]; MCF 7 (row above MCF 7/AdVp), 5 μM FTC with Paclitaxel): 1.0
- Dose modifying factor (MCF-7 cells [5]; MCF 7 (row above MCF 7/mtxR), 5 μM FTC with Doxorubicin): 1.0
- Dose modifying factor (MCF-7 cells [5]; MCF 7 (row above MCF 7/mtxR), 5 μM FTC with Mitoxantrone): 1.7
- Dose modifying factor (MCF-7 cells [5]; MCF 7 (row above MCF 7/mtxR), 5 μM FTC with Paclitaxel): 0.8
- Dose modifying factor (5 μM FTC) (MCF-7 cells [5]; with Doxorubicin): 1.0
- Dose modifying factor (5 μM FTC) (MCF-7 cells [5]; with Mitoxantrone): 2.5
- Dose modifying factor (5 μM FTC) (MCF-7 cells [5]; with Paclitaxel): 0.7
- Dose modifying factor (5 μM FTC) (MCF-7 cells [5]; with Topotecan): 5.6
- Reversal by FTC (fold), range over drugs (MCF-7 cells [5]; parental unselected MCF-7 cells): 0.8-1.7 fold
- reversal by FTC (fold), mitoxantrone and topotecan (MCF-7 cells [5]; untransfected MCF-7 cells, 5 μM FTC): 2.5-5.6 fold
- Dose modifying factor (MCF 7/AdVp cells): 0.7 (10.7)
- Dose modifying factor (HL-60 cells; 5 μM FTC with Doxorubicin): 2.1
- Dose modifying factor (HL-60 cells; 5 μM FTC with Mitoxantrone): 1.3
- Dose modifying factor (HL-60 cells; 5 μM FTC with Paclitaxel): 1.0
- reversal activity of FTC (fold), range over drugs (HL-60 cells; parental line HL-60): 1.0-2.1 fold
- reversal activity of FTC (fold), range over drugs (HL-60/AR cells; HL60/AR): 2.6-3.3 fold
- Dose modifying factor (HL-60/AR cells; 5 μM FTC with Doxorubicin): 2.8 (92.3)
- Dose modifying factor (HL-60/AR cells; 5 μM FTC with Mitoxantrone): 3.3 (53)
- Dose modifying factor (HL-60/AR cells; 5 μM FTC with Paclitaxel): 2.6 (5.1)
- reversal of resistance in MRP-positive HL60/AR cells (in words) (HL-60/AR cells; doxorubicin-selected): did not reverse resistance
- [^14C] doxorubicin retention, 1 μM FTC (MCF-7 cells [6]; 1 μM [14C]-doxorubicin): 10.3 ± 0.26 DPM per microgram protein
- [^14C] doxorubicin retention, 5 μM FTC (MCF-7 cells [6]; 1 μM [14C]-doxorubicin): 11.0 ± 0.71 DPM per microgram protein
- daunorubicin retention, Channel Number (fluorescence units), 1 μM FTC (MCF-7 cells [6]; 1 μM daunorubicin): 16.0 ± 0.98 fluorescence units
- daunorubicin retention, Channel Number (fluorescence units), 5 μM FTC (MCF-7 cells [6]; 1 μM daunorubicin): 16.8 ± 1.0 fluorescence units
- [^14C] doxorubicin retention, 1 μM FTC (MCF-7/BCRP cells; [7]): 9.5 ± 0.63 DPM per microgram protein
- [^14C] doxorubicin retention, 5 μM FTC (MCF-7/BCRP cells; [7]): 9.9 ± 0.18 DPM per microgram protein
- daunorubicin retention, Channel Number (fluorescence units), 1 μM FTC (MCF-7/BCRP cells; [8]): 12.2 ± 1.78 fluorescence units
- daunorubicin retention, Channel Number (fluorescence units), 5 μM FTC (MCF-7/BCRP cells; [8]): 15.6 ± 0.94 fluorescence units
- increase of amount of [^14C]-doxorubicin retained compared with untreated cells (MCF-7/BCRP cells; FTC 1 or 5 μM): 1.8 fold
- increase of amount of daunorubicin retained compared with untreated cells (MCF-7/BCRP cells; FTC 1 or 5 μM): 1.8-2.3 fold
- reversal of resistance in 8226/MR4 cells (in words) (8226/MR4 cells): reversed low level resistance
- sensitization to mitoxantrone (in words) (H460): can be sensitized to mitoxantrone
- sensitization to mitoxantrone (in words) (A549): can be sensitized to mitoxantrone
